How the values were obtained:
Type in all cases: cell-based, human
[1] = system: PC-1 gene expression in LNCaP and C4-2 cells; assay: Antiandrogen blockade of androgen-induced PC-1 gene expression in prostate cancer cell lines
Procedure: Parental LNCaP and its derivative cell lines, C4, C4-2, and C4-2B, were described previously. ARCaP cells, a highly invasive prostate cancer cell line, were generated by our lab from the ascites fluid of a person with Al and aggressive human prostate cancer. […]. To test the effect of androgen in affecting PC-1 gene expression in prostate cancer cell lines, cells were exposed to a synthetic androgen methyltrioenolone (R1881) at a concentration of 0.1, 1, and 10 nM. […] The culture was allowed to continue for two days and total cellular RNA was isolated and subjected to RT-PCR and Northern blot analysis for the expression of PC-1 gene. […]
(§1) First strain cDNA was synthesized from 1 μg of total RNA with a hexamer random primer obtained from Perkin-Elmer using a MMLV reverse transcriptase obtained from Life Technologies, Inc. (Grand Island, N.Y.) according to the manufacturer's instructions. cDNAs obtained were subjected to Taq DNA polymerase PCR reaction under the condition of 94° for 1 minute, 60° for 1 minute, 72° for 45 seconds, or 94° for 1 minute, 53° for 1 minute, and 72° for 1 minute for 30 cycles, and an extension of 72° for 10 minutes. […] The PCR. products were evaluated on a 1% agarose gel and confirmed by Southern blot analysis. […]

[2] = system: D52/N8 gene expression in LNCaP and C4-2 cells; assay: Androgen regulation of D52/N8 gene expression in prostate cancer cell lines
Procedure: Parental LNCaP and its derivative cell lines, C4, C4-2, and C4-2B, were described previously. ARCaP cells, a highly invasive prostate cancer cell line, were generated by our lab from the ascites fluid of a person with Al and aggressive human prostate cancer. […]. To test the effect of androgen in affecting PC-1 gene expression in prostate cancer cell lines, cells were exposed to a synthetic androgen methyltrioenolone (R1881) at a concentration of 0.1, 1, and 10 nM. To assess the specificity of androgen induction of PC-1 gene expression, some of the cells exposed to 10 nM of R1881 were also treated with an antiandrogen Casodex, 10 μM. […]
as §1

[3] = system: PC-1 gene expression in LNCaP cells; assay: Androgen regulation of PC-1 gene expression in LNCaP cells (RT-PCR and Northern blot); conditions: two days exposure
Procedure: (§2) Parental LNCaP and its derivative cell lines, C4, C4-2, and C4-2B, were described previously. ARCaP cells, a highly invasive prostate cancer cell line, were generated by our lab from the ascites fluid of a person with Al and aggressive human prostate cancer. All other cell lines were obtained from ATCC and were cultured in TB containing 5% FBS, as described previously. To test the effect of androgen in affecting PC-1 gene expression in prostate cancer cell lines, cells were exposed to a synthetic androgen methyltrioenolone (R1881) at a concentration of 0.1, 1, and 10 nM. To assess the specificity of androgen induction of PC-1 gene expression, some of the cells exposed to 10 nM of R1881 were also treated with an antiandrogen Casodex, 10 μM. […]
as §1

[4] = system: PC-1 gene expression in C4-2 cells; assay: Androgen regulation of PC-1 gene expression in C4-2 cells (RT-PCR and Northern blot); conditions: two days exposure
Procedure: as §2, §1

With CC(O)(CS(=O)(=O)c1ccc(F)cc1)C(=O)Nc1ccc(C#N)c(C(F)(F)F)c1 (stereo not drawn) [Casodex] the “effect on R1881-increased expression of the PC-1 gene” value ([1]; coadministration with R1881, Casodex (10 nM) as printed in FIG. 5 legend) was “blocked”, the “effect on androgen-induced PC-1 gene expression” value ([1]; coadministration with androgen, LNCaP and C4-2) was “effectively terminated” and the “inhibition of D52/N8 expression” value ([2]; coadministration of R1881 and Casodex) was “nor was its expression inhibited”.
C[C@]1(O)CC[C@H]2[C@@H]3CCC4=CC(=O)CCC4=C3C=C[C@@]21C [R1881, methyltrioenolone] was tested, and the “regulation of D52/N8 expression by androgen” value ([2]; R1881 alone) was “not regulated”, the “concentration required to increase PC-1 gene expression” value [3] was 1 nM and the “concentration at which steady-state levels of PC-1 gene expression are increased” value [4] was 0.1 nM.
